Data taken from ChEMBL document CHEMBL3045813, “Study of the inactivation of copper, zinc superoxide dismutase by tetracycline analogues” (Med Chem Res, 2008).
Calls of active or inactive are those of the source. The calls are words filed in the database; no cut-off is given here.

Assays:
[1] = molecular target: Superoxide dismutase [Cu-Zn] (Homo sapiens) (UniProt P00441); experiment: Binding affinity to Superoxide dismutase [Cu-Zn] (unknown origin) at 3.86 10^-5 mol/l after 10 min by UV-Vis spectrophotometric analysis
Sequence of Superoxide dismutase [Cu-Zn] (Homo sapiens) (P00441 whole entry): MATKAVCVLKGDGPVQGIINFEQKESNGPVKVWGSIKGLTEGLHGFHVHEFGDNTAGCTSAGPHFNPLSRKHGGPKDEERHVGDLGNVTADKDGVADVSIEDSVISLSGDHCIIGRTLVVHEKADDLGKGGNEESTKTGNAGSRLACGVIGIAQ

[2] = molecular target: Superoxide dismutase [Cu-Zn] (Homo sapiens) (UniProt P00441); experiment: Binding affinity to Superoxide dismutase [Cu-Zn] (unknown origin) after 10 min at 37 degC by Stern-Volmer plot analysis
[3] = molecular target: Superoxide dismutase [Cu-Zn] (Homo sapiens) (UniProt P00441); experiment: Binding affinity to Superoxide dismutase [Cu-Zn] (unknown origin) after 10 min at 30 degC by Stern-Volmer plot analysis
[4] = molecular target: Superoxide dismutase [Cu-Zn] (Homo sapiens) (UniProt P00441); experiment: Binding affinity to Superoxide dismutase [Cu-Zn] (unknown origin) after 10 min at 20 degC by Stern-Volmer plot analysis
[5] = molecular target: Superoxide dismutase [Cu-Zn] (Homo sapiens) (UniProt P00441); experiment: Binding affinity to Superoxide dismutase [Cu-Zn] (unknown origin) at 3.86 10^-5 mol/l after 10 min by fluorometric analysis
Oryctolagus cuniculus [6] = species: Oryctolagus cuniculus; experiment: Inactivation of New Zealand white Oryctolagus cuniculus (rabbit) Superoxide dismutase [Cu-Zn] at 28.8 mg QD for 7 days measured after 7 days by pyrogallol-oxidation method; format: functional, organism-based
Oryctolagus cuniculus [7] = species: Oryctolagus cuniculus; experiment: Inactivation of New Zealand white Oryctolagus cuniculus (rabbit) Superoxide dismutase [Cu-Zn] at 28.8 mg QD for 7 days measured up to 7 days by pyrogallol-oxidation method; format: functional, organism-based

SMILES | Activity [1] | K [2] | Kq [2] | K [3] | Kq [3] | K [4] | Kq [4] | Activity [5] | Activity (Oryctolagus cuniculus [6]) | Activity (Oryctolagus cuniculus [7])
C[C@H]1c2cccc(O)c2C(=O)C2=C(O)[C@]3(O)C(=O)C(C(N)=O)=C(O)[C@@H](N(C)C)[C@@H]3[C@@H](O)[C@@H]21 | Active | 1.34 ×10⁶ L/mol | 6.42 ×10¹² L/mol/s | 7.9 ×10⁶ L/mol | 7.73 ×10¹² L/mol/s | 6.73 ×10⁷ L/mol | 1.01 ×10¹³ L/mol/s | Active | – | –
CN(C)[C@@H]1C(O)=C(C(N)=O)C(=O)[C@@]2(O)C(O)=C3C(=O)c4c(O)cccc4[C@@](C)(O)[C@H]3C[C@@H]12 | Active | – | 5.25 ×10¹² L/mol/s | – | 5.3 ×10¹² L/mol/s | – | 5.97 ×10¹² L/mol/s | Active | inactive | Active
CN(C)[C@@H]1C(O)=C(C(N)=O)C(=O)[C@@]2(O)C(O)=C3C(=O)c4c(O)cccc4[C@@](C)(O)[C@H]3[C@H](O)[C@@H]12 | Active | 3.62 ×10⁴ L/mol | 3.96 ×10¹² L/mol/s | 8.93 ×10⁴ L/mol | 4.22 ×10¹² L/mol/s | 1.44 ×10⁵ L/mol | 4.37 ×10¹² L/mol/s | Active | – | –
